From PubChem BioAssay (NCI)
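Where inhibition never reached the appropriate level, the endpoint shown equals the highest concentration tested. Otherwise, values were interpolated linearly from a five-concentration, 48-hour dose response in 96-well plates. TGI marks complete inhibition of growth.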

Legend:
Assay in all cases: NCI anticancer screen, dose series, 48 h
786-0 renal = system: 786-0 renal
A498 renal = system: A498 renal
A549 NSCLC = system: A549 NSCLC
ACHN renal = system: ACHN renal
CAKI-1 renal = system: CAKI-1 renal
COLO 205 colon = system: COLO 205 colon
DU-145 prostate = system: DU-145 prostate
HCC-2998 colon = system: HCC-2998 colon
HCT-116 colon = system: HCT-116 colon
HL-60(TB) leukemia = system: HL-60(TB) leukemia
HOP-62 NSCLC = system: HOP-62 NSCLC
K-562 leukemia = system: K-562 leukemia
KM12 colon = system: KM12 colon
M14 melanoma = system: M14 melanoma
MCF7 breast = system: MCF7 breast
MDA-MB-231 breast = system: MDA-MB-231 breast
MDA-MB-435 = system: MDA-MB-435
MDA-N = system: MDA-N
MOLT-4 leukemia = system: MOLT-4 leukemia
NCI-H226 lung = system: NCI-H226 lung
NCI-H460 lung = system: NCI-H460 lung
OVCAR-3 ovarian = system: OVCAR-3 ovarian
OVCAR-4 ovarian = system: OVCAR-4 ovarian
PC-3 prostate = system: PC-3 prostate
RPMI-8226 leukemia = system: RPMI-8226 leukemia
RXF 393 renal = system: RXF 393 renal
SF-295 CNS = system: SF-295 CNS
SK-MEL-2 melanoma = system: SK-MEL-2 melanoma
SK-MEL-28 melanoma = system: SK-MEL-28 melanoma
SK-MEL-5 melanoma = system: SK-MEL-5 melanoma
SK-OV-3 ovarian = system: SK-OV-3 ovarian
SN12C renal = system: SN12C renal
SNB-19 CNS = system: SNB-19 CNS
SNB-75 CNS = system: SNB-75 CNS
SW-620 colon = system: SW-620 colon
T-47D breast = system: T-47D breast
TK-10 renal = system: TK-10 renal
U251 CNS = system: U251 CNS
UACC-257 melanoma = system: UACC-257 melanoma
UACC-62 melanoma = system: UACC-62 melanoma
UO-31 renal = system: UO-31 renal

**Q.** For `COC(=O)C1=C2SCc3ccc(cc3)CSC3=C(C(=O)OC)SC(=C(S2)S1)S3`, which TGI (786-0 renal) is on record?
**A.** Its TGI is > 100 µM.

**Q.** What about the TGI (A498 renal) of the same compound?
**A.** The TGI was > 100 µM.

**Q.** And the TGI (A549 NSCLC)?
**A.** The TGI was > 100 µM.

**Q.** What about the TGI (ACHN renal) of the same compound?
**A.** Its TGI is > 100 µM.

**Q.** And the TGI (CAKI-1 renal)?
**A.** Its TGI is > 100 µM.

**Q.** And the TGI (COLO 205 colon)?
**A.** Its TGI is > 100 µM.

**Q.** And the TGI (DU-145 prostate)?
**A.** Its TGI is > 100 µM.

**Q.** What about the TGI (HCC-2998 colon) of the same compound?
**A.** The TGI was > 100 µM.

**Q.** And the TGI (HCT-116 colon)?
**A.** Its TGI is > 100 µM.

**Q.** What about the TGI (HL-60(TB) leukemia) of the same compound?
**A.** Its TGI is 9.51 µM.

**Q.** And the TGI (HOP-62 NSCLC)?
**A.** Its TGI is > 100 µM.

**Q.** What about the TGI (K-562 leukemia) of the same compound?
**A.** Its TGI is > 100 µM.

**Q.** And the TGI (KM12 colon)?
**A.** The TGI was > 100 µM.

**Q.** And the TGI (M14 melanoma)?
**A.** Its TGI is > 100 µM.

**Q.** And the TGI (MCF7 breast)?
**A.** Its TGI is > 100 µM.

**Q.** What about the TGI (MDA-MB-231 breast) of the same compound?
**A.** Its TGI is > 100 µM.

**Q.** What about the TGI (MDA-MB-435) of the same compound?
**A.** The TGI was > 100 µM.

**Q.** What about the TGI (MDA-N) of the same compound?
**A.** Its TGI is > 100 µM.

**Q.** And the TGI (MOLT-4 leukemia)?
**A.** The TGI was > 100 µM.

**Q.** And the TGI (NCI-H226 lung)?
**A.** The TGI was > 100 µM.

**Q.** What about the TGI (NCI-H460 lung) of the same compound?
**A.** Its TGI is > 100 µM.

**Q.** What about the TGI (OVCAR-3 ovarian) of the same compound?
**A.** The TGI was > 100 µM.

**Q.** What about the TGI (OVCAR-4 ovarian) of the same compound?
**A.** Its TGI is > 100 µM.

**Q.** What about the TGI (PC-3 prostate) of the same compound?
**A.** The TGI was > 100 µM.

**Q.** What about the TGI (RPMI-8226 leukemia) of the same compound?
**A.** The TGI was > 100 µM.

**Q.** And the TGI (RXF 393 renal)?
**A.** Its TGI is > 100 µM.

**Q.** And the TGI (SF-295 CNS)?
**A.** The TGI was > 100 µM.

**Q.** And the TGI (SK-MEL-2 melanoma)?
**A.** Its TGI is > 100 µM.

**Q.** And the TGI (SK-MEL-28 melanoma)?
**A.** The TGI was > 100 µM.

**Q.** And the TGI (SK-MEL-5 melanoma)?
**A.** The TGI was > 100 µM.

**Q.** And the TGI (SK-OV-3 ovarian)?
**A.** The TGI was > 100 µM.

**Q.** And the TGI (SN12C renal)?
**A.** Its TGI is > 100 µM.

**Q.** What about the TGI (SNB-19 CNS) of the same compound?
**A.** The TGI was > 100 µM.

**Q.** What about the TGI (SNB-75 CNS) of the same compound?
**A.** The TGI was > 100 µM.

**Q.** What about the TGI (SW-620 colon) of the same compound?
**A.** Its TGI is > 100 µM.

**Q.** And the TGI (T-47D breast)?
**A.** Its TGI is > 100 µM.

**Q.** And the TGI (TK-10 renal)?
**A.** Its TGI is > 100 µM.

**Q.** What about the TGI (U251 CNS) of the same compound?
**A.** Its TGI is > 100 µM.

**Q.** And the TGI (UACC-257 melanoma)?
**A.** The TGI was > 100 µM.

**Q.** What about the TGI (UACC-62 melanoma) of the same compound?
**A.** The TGI was > 100 µM.

**Q.** What about the TGI (UO-31 renal) of the same compound?
**A.** Its TGI is > 100 µM.
